Assay results published in US5049372A, “Anticancer activities in a host by increasing blood and plasma adenosine 5'-triphosphate (ATP) levels” (priority 1988, dated 1991).
Where two headings read alike, the source gives them in different places.

Legend:
CT26 tumors = experiment: Growth inhibition of s.c. footpad CT26 tumors in CB6F1 mice by daily i.p. adenine nucleotides (Table 1); type: in vivo, mouse; conditions: for inhibition at 25000 µM: Mus musculus, CT26, 360 h, 1 ml of 25 mM, based on tumor weights
Experimental: The tumor cell lines employed were CT26, a mouse undifferentiated, aggressive colon carcinoma, and CAPAN-1, a well-differentiated human pancreatic adenocarcinoma. […] The cells are shown to be free of Mycoplasma contamination. Cells are cultured at 37° C. in a humidified atmosphere of 5% CO2 /95% air in MEM supplemented with antibiotics (100 units of penicillin per ml and 100 μg streptomycin per ml), L-glutamine (2 mM), non-essential amino acids (0.1 mM), sodium pyruvate (1 mM), and 10% fetal bovine serum.
In the tests, females and males CB6F1 mice (a standard F1 hybrid of BALB/C and C57BL/6) obtained from Jackson Laboratories, Bar Harbor, Maine and athymic outbred NCr nu/nu mice (males and females) from the Department of Radiation Medicine, Massachusetts General Hospital, Boston, Mass. 02114 are used. All the mice are kept for at least two weeks before inoculation of the tumors and the start of treatment and are 7-9 weeks old (CB6F1) or 6-7 weeks old (athymic nu/nu) at the start of the procedure. Animals weigh 20-25 g (females) or 23-28 g (males), are housed 5-12 per cage, and have ad libitum access to food and water.
Tumor cells are removed from subconfluent cultures by a mild trypsin-EDTA treatment, the cell pellet is washed once with MEM without serum and the cells are suspended at the desired cell numbers in PBS (phosphate-bufferedsaline, 8 g NaCl, 0.2 g KCl, 1.15 g Na2 HPO4.7H2 O, and 0.2 g KH2 PO4 per liter). Cell suspensions are shown to be at least 90% viable by trypan blue exclusion. Mice are injected subcutaneously in the right hind footpad with tumor cells suspended in 50 μl of PBS. The regular protocol (unless otherwise stated) consists of daily i.p. injections of 1 ml of 0.85% NaCl solution or 1 ml of 50 mM of AMP, ADP, or ATP in 0.85% NaCl (from stock solutions adjusted to pH 6.2) starting one day after tumor inoculation and given for ten consecutive days.
Injections are administered with 30 gauge needles and the mice are lightly anesthetized with ether. The mice are weighed before the start of treatment and once a week during and after treatment. After the tumors become palpable, tumor sizes are determined every three days. The animals are sacrificed, tumors are excised and weighed before they reach 10% of the animals' weight.
The growth inhibitory properties of adenine nucleotides against CT26 murine colon carcinoma, which are inoculated s.c. in the hind footpad of CB6F1 mice, are illustrated in Table 1 hereinbelow. […] No significant differences between males and females are observed either in the rate of tumor growth or in the tumor's response to adenine nucleotides treatment.

[1] = system: CT26 colon adenocarcinoma; experiment: Growth inhibition of footpad CT26 colon adenocarcinoma in CB6F1 mice, second series (FIGS. 2 and 3); type: in vivo, mouse; conditions: for Anticancer activities against established footpad CT26 colon adenocarcinoma: CB6F1 mice, in words; for Inhibition of growth of palpable CT26 tumors (in words): daily i.p. in 2.2 ml saline, pH 6.2, 12 days, starting after tumors palpable, equimolar amounts
Experimental: (§1) A further series of tests are conducted whereby tumors are inoculated by injections of 2.5×10^5 CT26 cells (over 90% viability) in 50 μl of phosphate-buffered saline into the right hind footpad of CB6F1 mice. The treatments were initiated at a variety of times after inoculation of the tumors. The injection schedules started either 1 or 5 days after tumor inoculation when none of the tumors are palpable or when the tumors are clearly palpable (average calculated weight of 100 mg), which occur in 100% of the inoculated mice after 8-11 days. Mice are randomized, divided into groups, and injected daily with 2.2 ml of saline, adenosine, AMP, or ATP (compounds are in sterile saline solutions at concentrations of 25 mM with AMP and ATP solutions adjusted to pH 6.2). Injections are administered intraperitoneally with 30 gauge needles and the mice are lightly anesthetized with […]. The mice are weighed and tumor sizes measured before the start of the treatment schedule and every three days during and after the treatment schedule. These determinations are performed before injections during the treatment period.
(§2) In particular, see FIG. 2. FIG. 2 illustrates inhibition of tumor growth (---) and host weight loss (-) in tumor-bearing mice by treatment with adenine nucleotides. Mice (CB6F1, 8 week old males) bearing palpable CT26 footpad tumors (on day 9 after tumor inoculation) are treated with saline (.smallcircle.), adenosine (o), AMP (Δ), or ATP (.quadrature.) as described herein. An untreated group is also included (x). Arrows indicate days of injection.
The magnitude of the antitumor activities of AMP and ATP depends to a small extent on the pH of the solution administered intraperitoneally. This property is probably related to the number of negative charges on the phosphate groups (the pKa of the secondary phosphate is around 6.6). AMP and especially ATP have some buffering capacity, and at a pH below 6.6 they carry a smaller net charge than at a physiological pH. The lower charge of these molecules enhances the initial (first hour) transport of AMP and ATP across the peritoneal membrane and into the systemic circulation (see Torres, et al., 1978, Pharmacol., 17, 330-340). […] The treatment schedule of palpable CT26 tumors which is illustrated in FIG. 2 consistently yields 10-20% of "cures". These mice remain tumor-free for at least two months.
FIG. 3 further illustrates inhibition of host weight loss in tumor-bearing animals by treatment with adenine nucleotides. Mice (CB6F1, males, 7 weeks old, in A, 10 weeks old in B, […]) with saline (.smallcircle.), adenosine (o), AMP (Δ), or ATP (.quadrature.) are initiated 1 day (A), 5 days (B), or 9 days after tumor inoculation (when all the tumors were palpable) (C). Arrows indicate days of injection. Experimental procedures were outlined in the text.

RBC ATP pools [2] = experiment: Expansion of RBC ATP pools and blood plasma ATP levels after i.p. injection (Table 4); type: in vivo, mouse
Experimental: (§3) The mice are anesthetized with ether during the procedure. Plasma or Hanks' (Balanced Salt Solution) BSS media from incubated isolated RBCs (Red Blood Cells) are prepared by centrifugation of whole blood or RBCs in a Beckman microfuge (30 seconds at 8000 xg) and samples of 100 μl are added to 1 ml of ice-cold 7% trichloroacetic acid. Red blood cells are prepared by centrifugation of whole blood (1500 xg for 5 minutes at 4° C.) and removal of plasma and the buffy coat is followed by a wash of the pelleted RBCs (from 250 μl of whole blood) in 5 ml of ice-cold Hanks' BSS. After centrifugations, the RBCs pellet is resuspended in Hanks' BSS to yield a total volume with the original hematocrit (percent of RBCs volume in the whole blood). Aliquots of 20 μl of RBCs suspensions or whole blood are added to 1 ml of ice-cold 7% trichloroacetic acid. Extraction of acid-soluble nucleotides and determinations of ATP levels by luminometry followed procedures discussed hereinabove. Levels of [^3 H]ATP in whole blood, RBCs, plasma, or RBCs incubation media (Hanks' BSS) are determined after incorporation of 250 μCi of [^3 H]adenosine of specific radioactivity of 30 Ci/mmol (1 Ci=3.7×10^10 becquerels) into whole blood or RBC suspensions (250 μl total) followed by immediate trichloroacetic acid extractions as described above. Two dimensional thin layer chromatography on poly(ethylene)imine cellulose with an unlabeled ATP carrier is performed according to Bochner and Ames, J. Biol. Chem., 257, pp. 9759-9769, 1982). For the determination of whole blood or isolated RBC [^3 H]ATP pools, 10 μl of a 1 ml initial trichloroacetic acid extract are chromatographed. Determinations of [^3 H]ATP levels in blood plasma or RBCs incubation media are performed on 300 μl of an initial 1 ml trichloroacetic acid extract which are lyophilized and redissolved in 15 μl of water. After chromatography, the spots corresponding to the ATP carrier are cut, eluted with 0.5 ml of 4 N ammonium hydroxide, and radioactivity determined in 10 ml of scintillation fluid.
Single intraperitoneal injections of 2 ml of 35 mM of AMP or ATP in saline at pH 6.2 into CB6F1 mice result in expansions of RBC ATP pools in these mice (see Table 4).
The expansions of RBC ATP pools after i.p. injections of AMP or ATP could be detected 30 minutes after injections and lasted for approximately 6-8 hours after the nucleotides were completely adsorbed across the peritoneal membrane and into the systemic circulation. The rates of adsorption of intraperitoneal AMP or ATP solutions varied in different strains of mice. […] These plasma ATP levels originate in RBCs since they can be metabolically labeled by [^3 H]adenosine. Plasma ATP pools which originate in the dense granules of blood platelets would not be radioactively labeled under the same conditions (e.g., Holmsen, 1985, Seminars in Hematol, 22, 219-240). The experiments described in Tables 4 and 5 include uptake of [^3 H]adenosine by whole blood (Table 4) or isolated washed RBCs (Table 5 below). In both cases, all the extracellular ATP, determined seconds after the uptake of [^3 H]adenosine, is metabolically labeled.

RBC ATP pools [3] = experiment: Stability of expanded RBC ATP pools in washed isolated RBCs in vitro after i.p. injection (Table 5); design: species or system mouse; conditions: average of two experiments
Experimental: as §3
Two hour incubations of washed isolated RBCs containing normal or expanded ATP pools in Hanks' BSS result in relatively small decreases in RBC ATP pools with the expanded pools being maintained well above normal levels (Table 5). The expansions of RBC ATP pools after i.p. administration of AMP or ATP in vivo is presumably the result of their dephosphorylation followed by the RBCs uptake of the adenosine which is generated in situ.

RBC ATP pools [4] = experiment: RBC ATP pools after in vitro incubation of whole mouse blood with 1 mM compound (Table 6); type: cell-based; conditions: 1 mM compound, 30 min, bioluminometry
Experimental: ^+ RBC ATP pools were determined in isolated washed RBCs after
incubations of whole blood with 1 mM of the specified compound by
bioluminometry. Data represent means ± S.D. of three separate

[5] = Inhibition of host weight loss (cancer cachexia) in CT26 tumor-bearing mice; type: in vivo, mouse
Experimental: as §1, §2
FIG. 3 further illustrates inhibition of host weight loss in tumor-bearing animals by treatment with adenine nucleotides. Mice (CB6F1, males, 7 weeks old, in A, 10 weeks old in B, C) are inoculated with CT26 tumors and daily treatments (for 10 consecutive days) with saline (.smallcircle.), adenosine (o), AMP (Δ), or ATP (.quadrature.) are initiated 1 day (A), 5 days (B), or 9 days after tumor inoculation (when all the tumors were palpable) (C). Arrows indicate days of injection. Experimental procedures were outlined in the text.

[6] = experiment 6, 10 F per group, 0.5 × 10^5 cells, day 18, 1 ml of 50 mM i.p. daily (Ap4A 10 mM)
[7] = experiment 1, 10 F per group, 0.5 × 10^6 cells, day 15, 1 ml of 25 mM i.p. daily
[8] = experiment 2, 10 M per group, 0.5 × 10^6 cells, day 15, 1 ml of 25 mM i.p. daily
[9] = 5 hours after i.p. injection of 2 ml of 35 mM, CB6F1, bioluminometry, citrate-dextrose

Nc1ncnc2c1ncn2[C@@H]1O[C@H](COP(=O)(O)OP(=O)(O)OP(=O)(O)OP(=O)(O)OC[C@H]2O[C@@H](n3cnc4c(N)ncnc43)[C@H](O)[C@@H]2O)[C@@H](O)[C@H]1O [AP4 A, reference compound]
Tumor diameter (CT26 tumors; [6]): 0.9 ± 0.3 cm
Tumor weight (CT26 tumors; [6]): 0.74 ± 0.21 g

Nc1ncnc2c1ncn2[C@@H]1O[C@H](COP(=O)(O)OP(=O)(O)OP(=O)(O)O)[C@@H](O)[C@H]1O [ATP-MgCl2]
inhibition at 25000 µM (CT26 tumors; read-out: Inhibition of tumor growth (% of saline-treated), experiment 1, 10 F per group, 0.5 × 10^6 cells, day 15): 18%
inhibition at 25000 µM (CT26 tumors; read-out: Inhibition of tumor growth (% of saline-treated), experiment 2, 10 M per group, 0.5 × 10^6 cells, day 15): 26%
Tumor diameter (CT26 tumors; [7]): 1.4 ± 0.2 cm
Tumor weight (CT26 tumors; [7]): 1.59 ± 0.24 g
Tumor diameter (CT26 tumors; [8]): 1.4 ± 0.3 cm
Tumor weight (CT26 tumors; [8]): 1.38 ± 0.40 g

Nc1ncnc2c1ncn2[C@@H]1O[C@H](CO)[C@@H](O)[C@H]1O [Adenosine, adenosine]
Anticancer activities against established footpad CT26 colon adenocarcinoma [1]: without such effects
Deaths before stated day after tumor inoculation ([1]; FIG. 2 experiment, palpable CT26 tumors, 10 animals per group): No deaths occurred before day 22
Inhibition of growth of palpable CT26 tumors (in words) [1]: Much weaker anticancer activities
Plasma ATP levels (RBC ATP pools [2]; [9]): 1.12 ± 0.28 µM
RBC ATP pools (RBC ATP pools [2]; [9]): 1.10 ± 0.24 mM
Plasma [^3 ]ATP levels immediately after [^3 H]adenosine incorporation into whole blood (RBC ATP pools [2]; 5 hours after i.p. injection of 2 ml of 35 mM, CB6F1, radioactivity corrected by RBC specific radioactivity): 0.77 ± 0.30 µM
Expansion of RBC ATP pools (in words) (RBC ATP pools [2]; i.p. injection, host animals): only slightly effective in expanding mouse RBC ATP pools
Medium (Hanks' BSS) [^3 H]ATP levels immediately after [^3 H]adenosine incorporation into isolated, washed RBCs (at time 0) (RBC ATP pools [3]; time 0): 1.20 µM
ATP levels in the medium (Hanks' BSS) (RBC ATP pools [3]; time 0, bioluminometry): 1.71 µM
RBC ATP pools (37° C.), 0 min (RBC ATP pools [3]; washed RBCs in Hanks' BSS, 37° C., 0 min): 0.69 mM
RBC ATP pools (37° C.), 120 min (RBC ATP pools [3]; washed RBCs in Hanks' BSS, 37° C., 120 min): 0.54 mM
RBC ATP pools (after 30 min incubations in heparinized mouse blood) (RBC ATP pools [4]): 0.55 ± 0.17 µM
Deaths before stated day after tumor inoculation ([5]; FIG. 3, treatment initiated day 1 (A), day 5 (B) or day 9 (C)): No deaths occurred before day 19 (A) or day 25 (B,C)
Effect on tumor growth and rate of weight loss, schedules ending before tumors become large ([5]; FIGS. 3A and 3B, treatment from day 1 or day 5): having only a small effect on either of the two phenomena
Inhibition of host weight loss (in words) ([5]; tumors of similar sizes, FIG. 2 data): inhibit weight loss

O=P(O)(O)O [inorganic phosphate, reference compound]
Anticancer activities against established footpad CT26 colon adenocarcinoma [1]: without such effects
Inhibition of growth of palpable CT26 tumors (in words) [1]: without any effects on the growth of CT26 tumors

O=P(O)(O)OP(=O)(O)O [inorganic pyrophosphate, reference compound]
Anticancer activities against established footpad CT26 colon adenocarcinoma [1]: without such effects
Inhibition of growth of palpable CT26 tumors (in words) [1]: without any effects on the growth of CT26 tumors
